The results in this text go back to US20260294767A1, “USE OF ERGOTHIONEINE IN PROMOTING COLLAGEN GENERATION” (BLOOMAGE BIOTECHNOLOGY CORPORATION LIMITED, priority 2022, published 2026).

Experiment [1] deals with type III collagen generation in primary human dermal fibroblasts. The experiment in a line: Type III collagen generation in primary human dermal fibroblasts, ELISA of culture supernatant. In kind it is cell-based. The conditions noted are these: for Relative expression level of type III collagen: N=3, vs blank control 100.00%. How it is done: A sample solution was prepared by dissolving ergothioneine solid powder in a basic culture medium, and the concentration was adjusted to 0.001 wt %.
When the in vitro cultured fibroblasts reached 80-90% confluence, they were digested with trypsin and inoculated into 96-well plates. After 48 hours of monolayer culture in a 96-well plate, cells were treated with the ergothioneine sample prepared in step (1) (N=3), with a treatment group comprising 100 ng/mL IGF-1 was set as the positive control. After 48 hours, the cell culture supernatant was taken for ELISA assay of type III collagen, and the type III collagen content of the measured sample group was statistically compared with that of the blank control group to evaluate the effect of ergothioneine on the generation of type III collagen.
All results were presented as Mean±SD, and differences in measured data were compared using an unpaired t-test. P-value<0.05 is considered statistically significant.

Experiment [2] concerns type III collagen generation in human fibroblast (HFF). The experiment in a line: Type III collagen content by human collagen III ELISA in human fibroblast (HFF). The conditions noted are these: 0.2 wt % ergothioneine, 72 hours. In kind it is cell-based. On the procedure: Human fibroblast (HFF) in logarithmic growth phase were collected, discarding the culture medium, washing them once with PBS, adding 0.25 wt % trypsin, incubating in a cell culture incubator for 1 minute, and then terminating digestion of the culture medium. The culture medium was centrifuged at 1000 rpm for 3 minutes, and the cells were resuspended in complete DMEM medium and counted. Human fibroblast (HFF) were inoculated into 12-well plates at a density of 3×10^5 cells/ml, with 1 ml/well. After incubation in an incubator at 37° C. and 5% CO2 for 24 hours, the culture medium was removed and the cells were washed with PBS.
The cells washed in step 1 were divided into two groups, namely a blank control group and an ergothioneine group, with 3 replicates in each group. Among them, the blank control group: 1 ml of serum-free culture medium; the ergothioneine group: 1 ml of serum-free culture medium containing 0.2 wt % ergothioneine.
After thoroughly mixing, cells in the above groups were placed in an incubator and cultured for another 72 hours.
Phase contrast microscopy was used to observe cell growth, morphology, and integrity of the cell monolayer, and changes in cell morphology and growth were recorded. The content of type III collagen was determined by using the human collagen III ELISA kit.
Type III collagen promotion rate was calculated as: […]

Take “IGF-1: 100 ng/mL IGF-1 was set as the positive control”: in experiment [1] (100 ng/mL IGF-1, 48 hours, P<0.05), the “effect on synthesis of type III collagen in fibroblasts (in words)” value was “significantly promotes the synthesis of type III collagen in fibroblasts”. Further, the “Relative expression level of type III collagen” value in experiment [1] (positive control 100 ng/mL IGF-1, 48 hours, SD 0.05, P 0.0103) came out at 129.3%.

On to `C[N+](C)(C)[C@@H](Cc1c[nH]c(=S)[nH]1)C(=O)[O-]` [Ergothioneine, ergothioneine], for which the “effect on generation of type III collagen (in words)” value in experiment [2] (compared with blank control) is “can significantly promote the generation of type III collagen”; in experiment [1] (ergothioneine 0.001%, 48 hours, P<0.05), “significantly promotes the generation of type III collagen”. In experiment [2] (Homo sapiens, Fibroblast, serum-free medium, 3 replicates, vs blank control 100.0 ± 12.3, ** P < 0.01, read-out: Relative expression level of type III collagen (%)), the activity at 0.2 wt % worked out at 148 ± 20.1%. The activation at 0.2 wt % in experiment [2] (Homo sapiens, Fibroblast, serum-free medium, 3 replicates, vs blank control, read-out: Type III collagen promotion rate (%)) turned out to be 48.3 ± 20.1%. The “Relative expression level of type III collagen” value in experiment [1] (ergothioneine 0.001 wt %, 48 hours, SD 0.07, P 0.0360) is 117.8%.
